Marks after values point to notes of the source that are not given here.
Assays:
[1] = target: human RORγt ligand binding domain (RORγt LBD) (Homo sapiens (Human), UniProt P51449); experiment: RORγt ThermoFluor assay
Description: ThermoFluor® is a fluorescence based assay that estimates ligand binding affinities by measuring the effect of a ligand on protein thermal stability (Pantoliano, M. W., Petrella, E. C., Kwasnoski, J. D., Lobanov, V. S., Myslik, J., Graf, E., Carver, T., Asel, E., Springer, B. A., Lane, P., and Salemme, F. R. (2001) High-density miniaturized thermal shift assays as a general strategy for drug discovery. J Biomol Screen 6, 429-40, and Matulis, D., Kranz, J. K., Salemme, F. R., and Todd, M. J. (2005) Thermodynamic stability of carbonic anhydrase: measurements of binding affinity and stoichiometry using ThermoFluor. Biochemistry 44, 5258-66). This approach is applicable to a wide variety of systems, and rigorous in theoretical interpretation through quantitation of equilibrium binding constants (KD).
The shift in the melting point described as a ΔTm is proportional to the concentration and affinity of the ligand.
RORγt ThermoFluor® Assay Construct
Nucleotides 850-1635 (SEQ ID NO:2) coding for the wild type human RORγt ligand binding domain (RORγt LBD) were cloned into the pHIS 1 vector, a modified pET E. coli expression vector (Accelagen, San Diego), containing an in-frame N-terminal His-tag and a TurboTEV protease cleavage site (ENLYFQG, SEQ ID NO:3) upstream of the cloned insert sequence. The amino acid sequence for the RORγt construct used in the Thermofluor® assay is shown as SEQ ID NO:4.
ThermoFluor® experiments were carried out using instruments owned by Janssen Research and Development, L.L.C. through its acquisition of 3-Dimensional Pharmaceuticals, Inc. 1,8-ANS (Invitrogen) was used as a fluorescent dye. Protein and compound solutions are dispensed into black 384-well polypropylene PCR microplates (Abgene) and overlayed with silicone oil (1 μL, Fluka, type DC 200) to prevent evaporation.
Bar-coded assay plates are robotically loaded onto a thermostatically controlled PCR-type thermal block and then heated at a typical ramp-rate of 1° C./min for all experiments. Fluorescence was measured by continuous illumination with UV light (Hamamatsu LC6) supplied via fiber optic and filtered through a band-pass filter (380-400 nm; >6 OD cutoff). Fluorescence emission of the entire 384-well plate was detected by measuring light intensity using a CCD camera (Sensys, Roper Scientific) filtered to detect 500±25 nm, resulting in simultaneous and independent readings of all 384 wells. Images were collected at each temperature, and the sum of the pixel intensity in a given area of the assay plate was recorded versus temperature. Reference wells contained RORγt without compounds, and the assay conditions were as follows: • 0.065 mg/mL RORγt • 60 μM 1,8-ANS • 100 mM Hepes, pH 7.0 • 10 mM NaCl • 2.5 mM GSH • 0.002% Tween-20
Project compounds were arranged in a pre-dosed mother plate (Greiner Bio-one) wherein compounds are serially diluted in 100% DMSO by 1:2 from a high concentration of 10 mM over 12 columns within a series (column 12 is a reference well containing DMSO, no compound). The compounds were robotically dispensed directly into assay plates (1×=46 nL) using a Hummingbird capillary liquid handling instrument (Digilab). Following compound dispense, protein and dye in buffer was added to achieve the final assay volume of 3 μL, followed by 1 μL of silicone oil.
The binding affinity was estimated as described previously (Matulis, D., Kranz, J. K., Salemme, F. R., and Todd, M. J. (2005) Thermodynamic stability of carbonic anhydrase: measurements of binding affinity and stoichiometry using ThermoFluor®. Biochemistry 44, 5258-66) using the following thermodynamic parameters of protein unfolding: […]

full-length human RORγt = full-length human RORγt (Homo sapiens (Human), UniProt P51449); experiment: RORγt (full-length human) reporter assay, conditions A or B; assay type: cell-based; details: for IC50: HEK293T cells, read-out: RORγt (FL) Reporter Assay A or B, IC50; for inhibition at 2 µM: 2 μM compound concentration (**), read-out: RORγt (FL) Reporter Assay A or B, % inhibition; for inhibition at 3 µM: read-out: RORγt (FL) Reporter Assay A or B, % inhibition, 3 μM compound concentration (*)
Chain of full-length human RORγt (P51449 other isoform, or with tags, fused parts or gaps): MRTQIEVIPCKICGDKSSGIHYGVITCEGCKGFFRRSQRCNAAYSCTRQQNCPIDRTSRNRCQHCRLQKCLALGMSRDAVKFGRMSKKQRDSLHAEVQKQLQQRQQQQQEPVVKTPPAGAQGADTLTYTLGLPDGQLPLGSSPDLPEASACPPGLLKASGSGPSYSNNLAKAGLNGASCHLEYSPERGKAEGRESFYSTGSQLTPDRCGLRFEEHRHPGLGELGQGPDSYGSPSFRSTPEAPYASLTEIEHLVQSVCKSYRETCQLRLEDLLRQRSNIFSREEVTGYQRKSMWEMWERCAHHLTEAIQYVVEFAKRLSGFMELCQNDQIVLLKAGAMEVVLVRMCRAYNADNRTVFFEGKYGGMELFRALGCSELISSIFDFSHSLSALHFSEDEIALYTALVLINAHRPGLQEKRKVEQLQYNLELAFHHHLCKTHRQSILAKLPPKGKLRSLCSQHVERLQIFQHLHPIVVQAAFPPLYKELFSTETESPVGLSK
Description: RORγt (Full-Length Human) Reporter Assay:
Cells used in this assay were transiently co-transfected with three different plasmids, one expressing the GAL4-DNA binding domain (DBD)-RORγt fusion protein under control of a CMV promoter (NH2-Gal4-DBD:RORC—COOH in pCMV-BD, Stratagene #211342), and two reporter plasmids—the firefly luciferase reporter under control of a GAL4 promoter (pFR-Luc 2×GAL4) and Renilla luciferase reporter under control of CMV promoter (pRL-CMV, Promega #E2261). […] HEK293T cells were plated at 35,000 per well in 96-well plate in medium of DMEM with 10% FBS. After 18-22 hours incubation, the transfection was carried out by using a PEI solution with 170.5 ng total DNA/well (50 ng pCMV-BD-ROR plus 20 ng of pFR-Luc reporter and 0.5 ng of pRL-CMV reporter plus 100 ng Carrier DNA (Clontech #630440) for each well). 4-6 hours after transfection, cells were treated with compounds for overnight in the medium with final concentration of FBS 1.3% and DMSO 0.1%. After overnight (16 to 20 hours) incubation, media were removed and cells were lysed with […] Glo Lysis Buffer (Promega) for 10-15 minutes followed by 10 minute incubation with 50 μL Dual Glo reagent (Promega) at room temperature. Firefly luciferase luminescence was measured using a BMG Pherastar plate reader. To each well, 50 μL Stop and Glo reagent was added and incubated for 10 minutes at room temperature. Renilla luminescence was measured using a BMG Pherastar plate reader. To calculate the effect of compounds on RORγt activity, firefly values were normalized against values of DMSO only and values of reference compound at saturating concentration, then further normalized against Renilla signals. IC50s were generated by plotting final Renilla normalized data against compound concentration and percent inhibition was calculated against DMSO control.
Cells used in this assay were transiently co-transfected with three different plasmids, one expressing the GAL4-DNA binding domain (DBD)-RORγt fusion protein under control of a CMV promoter (NH2-Gal4-DBD:RORC—COOH in pCMV-BD, Stratagene #211342), and two reporter plasmids—the firefly luciferase reporter under control of a GAL4 promoter (pFR-Luc 2×GAL4) and Renilla luciferase reporter under control of CMV promoter (pRL-CMV, Promega #E2261). […] HEK293T cells were plated at 8750 cells per well in 384-well plate in medium of DMEM with 10% FBS. After 18-22 hours incubation, the transfection was carried out by using a PEI solution with 42.6 ng total DNA/well (12.5 ng pCMV-BD-ROR plus 5 ng of pFR-Luc reporter and 0.125 ng of pRL-CMV reporter plus 25 ng Carrier DNA (Clontech #630440) for each well). 4-6 hours after transfection, cells were treated with compounds for overnight in the medium with final concentration of FBS 1.3% and DMSO 0.1%. After overnight (16 to 20 hours) incubation, media were removed and cells were lysed with 20 μL Glo Lysis Buffer (Promega) for 10-15 minutes followed by 10 minute incubation with 20 μL Dual Glo reagent (Promega) at room temperature. Firefly luciferase luminescence was measured using a BMG Pherastar plate reader. To each well, 20 μL Stop and Glo reagent was added and incubated for 10 minutes at room temperature. Renilla luminescence was measured using a BMG Pherastar plate reader. To calculate the effect of compounds on RORγt activity, firefly values were normalized against values of DMSO only and values of reference compound at saturating concentration, then further normalized against Renilla signals. IC50s were generated by plotting final Renilla normalized data against compound concentration and percent inhibition was calculated against DMSO control.

Chain of human RORγt ligand binding domain (RORγt LBD) (P51449 other isoform, or with tags, fused parts or gaps): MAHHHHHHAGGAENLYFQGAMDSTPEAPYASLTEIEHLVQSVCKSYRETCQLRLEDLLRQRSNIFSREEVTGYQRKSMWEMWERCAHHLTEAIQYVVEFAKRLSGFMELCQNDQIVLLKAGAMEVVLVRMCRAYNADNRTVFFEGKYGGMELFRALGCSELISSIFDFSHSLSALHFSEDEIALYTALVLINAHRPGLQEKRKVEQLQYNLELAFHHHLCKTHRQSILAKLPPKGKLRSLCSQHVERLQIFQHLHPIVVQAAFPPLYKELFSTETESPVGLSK

| Compound | Kd [1] [nM] | RORγt (FL) Reporter Assay A or B, % inhibition (full-length human RORγt; 0.67 μM compound concentration (****)) | IC50 (full-length human RORγt) [nM] | inhibition at 2 µM (full-length human RORγt) [%] | inhibition at 3 µM (full-length human RORγt) [%] |
| --- | --- | --- | --- | --- | --- |
| CCc1nc(C(=O)NC[C@H]2CC[C@H](S(C)(=O)=O)CC2)c(Cl)n1-c1ccc(CC(C)C(F)(F)F)cc1OC (single isomer, unassigned) [Example 5, 5-Chloro-2-ethyl-1-((1R*)-2-methoxy-4-(3,3,3-trifluoro-2-methylpropyl)phenyl)-N-(((1r,4R)-4-(methylsulfonyl)cyclohexyl)methyl)-1H-imidazole-4-carboxamide] | 1300 | 43**** % | 260 | – | – |
| CCc1nc(C(=O)NC[C@]2(O)CC[C@@H](S(C)(=O)=O)CC2)cn1-c1ccc(C[C@@H](C)C(F)(F)F)cc1OC (single isomer, unassigned) [Example 17, 2-Ethyl-N-(((1s,4S)-1-hydroxy-4-(methylsulfonyl)cyclohexyl)methyl)-1-(2-methoxy-4-((R*)-3,3,3-trifluoro-2-methylpropyl)phenyl)-1H-imidazole-4-carboxamide] | 75 | – | 400 | 74 | – |
| CCc1nc(C(=O)NC[C@H]2CC[C@H](S(C)(=O)=O)CC2)cn1-c1ccc(C[C@@H](C)C(F)(F)F)cc1OC (single isomer, unassigned) [Example 18, 2-Ethyl-1-(2-methoxy-4-((R*)-3,3,3-trifluoro-2-methylpropyl)phenyl)-N-(((1r,4R)-4-(methylsulfonyl)cyclohexyl)methyl)-1H-imidazole-4-carboxamide] | 28 | – | 230 | 93 | – |
| CCc1nc(C(=O)NC[C@]2(O)CC[C@@H](S(C)(=O)=O)CC2)cn1-c1ccc(C[C@H](C)C(F)(F)F)cc1OC (single isomer, unassigned) [Example 19, 2-Ethyl-N-(((1s,4R)-1-hydroxy-4-(methylsulfonyl)cyclohexyl)methyl)-1-(2-methoxy-4-((S*)-3,3,3-trifluoro-2-methylpropyl)phenyl)-1H-imidazole-4-carboxamide] | 50 | – | 360 | 80 | – |
| CCc1nc(C(=O)NC[C@H]2CC[C@H](S(C)(=O)=O)CC2)cn1-c1ccc(C[C@H](C)C(F)(F)F)cc1OC (single isomer, unassigned) [Example 20, 2-Ethyl-1-(2-methoxy-4-((S*)-3,3,3-trifluoro-2-methylpropyl)phenyl)-N-(((1r,4S)-4-(methylsulfonyl)cyclohexyl)methyl)-1H-imidazole-4-carboxamide] | 21 | – | 170 | 94 | – |
| Cc1nc(C(=O)NC[C@H]2CC[C@H](S(C)(=O)=O)C[C@@H]2O)c(C#N)n1-c1ccc(CC(C)(C)C(F)(F)F)cc1OC(F)F (single isomer, unassigned) [Example 56, 5-Cyano-1-(2-(difluoromethoxy)-4-(3,3,3-trifluoro-2,2-dimethylpropyl)phenyl)-N-(((1R*,2S*,4S*)-2-hydroxy-4-(methylsulfonyl)cyclohexyl)methyl)-2-methyl-1H-imidazole-4-carboxamide] | 32 | – | 63 | – | 102 |
| Cc1nc(C(=O)NC[C@@H]2CC[C@@H](S(C)(=O)=O)C[C@H]2O)c(C#N)n1-c1ccc(CC(C)(C)C(F)(F)F)cc1OC(F)F (single isomer, unassigned) [Example 57, 5-Cyano-1-(2-(difluoromethoxy)-4-(3,3,3-trifluoro-2,2-dimethylpropyl)phenyl)-N-(((1S*,2R*,4R*)-2-hydroxy-4-(methylsulfonyl)cyclohexyl)methyl)-2-methyl-1H-imidazole-4-carboxamide] | 22 | – | 40 | – | 98 |
| CCc1nc(C(=O)NC[C@H]2CC[C@H](S(C)(=O)=O)C[C@@H]2O)c(Cl)n1-c1ncc(CC(C)(C)C(F)(F)F)cc1OC(F)F (single isomer, unassigned) [Example 58, 5-Chloro-1-(3-(difluoromethoxy)-5-(3,3,3-trifluoro-2,2-dimethylpropyl)pyridin-2-yl)-2-ethyl-N-(((1R*,2S*,4S*)-2-hydroxy-4-(methylsulfonyl)cyclohexyl)methyl)-1H-imidazole-4-carboxamide] | 12 | – | 160 | – | 121 |
| CCc1nc(C(=O)NC[C@@H]2CC[C@@H](S(C)(=O)=O)C[C@H]2O)c(Cl)n1-c1ncc(CC(C)(C)C(F)(F)F)cc1OC(F)F (single isomer, unassigned) [Example 59, 5-Chloro-1-(3-(difluoromethoxy)-5-(3,3,3-trifluoro-2,2-dimethylpropyl)pyridin-2-yl)-2-ethyl-N-(((1S*,2R*,4R*)-2-hydroxy-4-(methylsulfonyl)cyclohexyl)methyl)-1H-imidazole-4-carboxamide] | 12 | – | 65 | – | 104 |

Reference: patent US11345666B2, “Phenyl and pyridinyl substituted imidazoles as modulators of RORγT” (Janssen Pharmaceutica NV, priority 2018, dated 2022)
